Values of other authors in paper PMC10318822, “Phase 1 dose-escalation study to evaluate the safety, tolerability, pharmacokinetics, and anti-tumor activity of FCN-159 in adults with neurofibromatosis type 1-related unresectable plexiform neurofibromas” (BMC Medicine, 2023).
Where two headings read alike, the source gives them in different places.

Assays:
[1] = cited from earlier work; for RP2D: twice daily
NF1-related PN [2] = tested on: NF1-related PN; parameters: method as in PMID 33507822; details: adult patients with NF1 and progressive PN, 2 mg/m^2 twice daily, n = 8/19; cited from earlier work
patients [3] = tested on: patients; parameters: method as in PMID 20215549; details: cited from earlier work
NF1-related PN [4] = details: cited from earlier work
patients [5] = details: in vivo; cited from earlier work

SMILES | Terminal half-life [1] [h] | Terminal half-life, average [1] [h] | RP2D [1] [mg/m^2] | Response rate (NF1-related PN [2]) [%] | Blurred vision (patients [3]) [%] | Patients with rash (patients [3]) [%] | Visual disturbance (patients [3]) [%] | Partial responses (PRs) (NF1-related PN [4]; interim results, phase II study in adults (NCT02407405), n = 16/23) [%] | Response rate (NF1-related PN [4]; pediatric patients with NF1-related PN) | Partial responses (PRs) (NF1-related PN [4]; phase I study, children, 20–30 mg/m^2 twice daily, n = 17/24) [%] | Partial responses (PRs) (NF1-related PN [4]; phase II trial, n = 34/50) [%] | Dose proportionality of plasma concentration increase [1] | Time to Cmax ([1]; human, in vivo) [h] | Patients reporting AEs of CTCAE grade 3 or above (patients [5]) | Patients with acneiform dermatitis (patients [5]) [%] | Visual function AEs (patients [5]) [%]
O=C(NOC[C@H](O)CO)c1ccc(F)c(F)c1Nc1ccc(I)cc1F [mirdametinib] | 4.6 to 18.0 | 7.8 | 2 | 42 | 10.6 | 78.8 | 13.6 |  |  |  |  |  |  |  |  | 
Cn1cnc2c(F)c(Nc3ccc(Br)cc3Cl)c(C(=O)NOCCO)cc21 [selumetinib] | 6.0 to 6.9 |  | 25 |  |  |  |  | 69 | 40–70% | 71 | 68 | less than dose-proportional | 1.00 to 1.10 | up to 71.4% | 62.5 | 17.9
